# Laboratory results reported in PubChem BioAssay (NCI).
#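 Cultured in 96-well plates, cells were exposed to test compound for 48 hours across five concentrations. Definition used: TGI = concentration required for complete inhibition of growth.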
# Tests used:
# Test in all cases: NCI tumour cell line growth inhibition, 48 h
# 786-0 renal = test system: 786-0 renal
# A498 renal = test system: A498 renal
# A549 NSCLC = test system: A549 NSCLC
# ACHN renal = test system: ACHN renal
# BT-549 breast = test system: BT-549 breast
# CAKI-1 renal = test system: CAKI-1 renal
# CCRF-CEM leukemia = test system: CCRF-CEM leukemia
# COLO 205 colon = test system: COLO 205 colon
# DU-145 prostate = test system: DU-145 prostate
# EKVX NSCLC = test system: EKVX NSCLC
# HCC-2998 colon = test system: HCC-2998 colon
# HCT-116 colon = test system: HCT-116 colon
# HCT-15 colon = test system: HCT-15 colon
# HL-60(TB) leukemia = test system: HL-60(TB) leukemia
# HOP-62 NSCLC = test system: HOP-62 NSCLC
# HOP-92 NSCLC = test system: HOP-92 NSCLC
# HS 578T breast = test system: HS 578T breast
# HT29 colon = test system: HT29 colon
# IGROV1 ovarian = test system: IGROV1 ovarian
# K-562 leukemia = test system: K-562 leukemia
# KM12 colon = test system: KM12 colon
# LOX IMVI melanoma = test system: LOX IMVI melanoma
# M14 melanoma = test system: M14 melanoma
# MALME-3M melanoma = test system: MALME-3M melanoma
# MDA-MB-231 breast = test system: MDA-MB-231 breast
# MDA-MB-435 = test system: MDA-MB-435
# MDA-N = test system: MDA-N
# MOLT-4 leukemia = test system: MOLT-4 leukemia
# NCI-H226 lung = test system: NCI-H226 lung
# NCI-H23 lung = test system: NCI-H23 lung
# NCI-H460 lung = test system: NCI-H460 lung
# NCI-H522 lung = test system: NCI-H522 lung
# NCI/ADR-RES ovarian = test system: NCI/ADR-RES ovarian
# OVCAR-3 ovarian = test system: OVCAR-3 ovarian
# OVCAR-4 ovarian = test system: OVCAR-4 ovarian
# OVCAR-5 ovarian = test system: OVCAR-5 ovarian
# OVCAR-8 ovarian = test system: OVCAR-8 ovarian
# PC-3 prostate = test system: PC-3 prostate
# RPMI-8226 leukemia = test system: RPMI-8226 leukemia
# SF-268 CNS = test system: SF-268 CNS
# SF-295 CNS = test system: SF-295 CNS
# SF-539 CNS = test system: SF-539 CNS
# SK-MEL-2 melanoma = test system: SK-MEL-2 melanoma
# SK-MEL-28 melanoma = test system: SK-MEL-28 melanoma
# SK-MEL-5 melanoma = test system: SK-MEL-5 melanoma
# SK-OV-3 ovarian = test system: SK-OV-3 ovarian
# SN12C renal = test system: SN12C renal
# SNB-19 CNS = test system: SNB-19 CNS
# SNB-75 CNS = test system: SNB-75 CNS
# SR leukemia = test system: SR leukemia
# SW-620 colon = test system: SW-620 colon
# T-47D breast = test system: T-47D breast
# TK-10 renal = test system: TK-10 renal
# U251 CNS = test system: U251 CNS
# UACC-257 melanoma = test system: UACC-257 melanoma
# UACC-62 melanoma = test system: UACC-62 melanoma
# UO-31 renal = test system: UO-31 renal
# MCF7 breast = test system: MCF7 breast
compound,measurement,setting,value
C=C1C(=O)O[C@H]2[C@H]([C@H](C)CCCC(C)=O)O[C@H]([C@@]3(C)CCC(=O)O3)C[C@@H]12,TGI,786-0 renal,> 100 µM
same,TGI,A498 renal,> 100 µM
same,TGI,A549 NSCLC,> 100 µM
same,TGI,ACHN renal,> 100 µM
same,TGI,BT-549 breast,> 100 µM
same,TGI,CAKI-1 renal,54.3 µM
same,TGI,CCRF-CEM leukemia,83.5 µM
same,TGI,COLO 205 colon,> 100 µM
same,TGI,DU-145 prostate,> 100 µM
same,TGI,EKVX NSCLC,> 100 µM
same,TGI,HCC-2998 colon,> 100 µM
same,TGI,HCT-116 colon,85.5 µM
same,TGI,HCT-15 colon,> 100 µM
same,TGI,HL-60(TB) leukemia,> 100 µM
same,TGI,HOP-62 NSCLC,> 100 µM
same,TGI,HOP-92 NSCLC,> 100 µM
same,TGI,HS 578T breast,> 100 µM
same,TGI,HT29 colon,> 100 µM
same,TGI,IGROV1 ovarian,> 100 µM
same,TGI,K-562 leukemia,> 100 µM
same,TGI,KM12 colon,> 100 µM
same,TGI,LOX IMVI melanoma,64.4 µM
same,TGI,M14 melanoma,> 100 µM
same,TGI,MALME-3M melanoma,54.3 µM
same,TGI,MDA-MB-231 breast,> 100 µM
same,TGI,MDA-MB-435,> 100 µM
same,TGI,MDA-N,> 100 µM
same,TGI,MOLT-4 leukemia,> 100 µM
same,TGI,NCI-H226 lung,80.5 µM
same,TGI,NCI-H23 lung,> 100 µM
same,TGI,NCI-H460 lung,> 100 µM
same,TGI,NCI-H522 lung,64.8 µM
same,TGI,NCI/ADR-RES ovarian,> 100 µM
same,TGI,OVCAR-3 ovarian,> 100 µM
same,TGI,OVCAR-4 ovarian,> 100 µM
same,TGI,OVCAR-5 ovarian,> 100 µM
same,TGI,OVCAR-8 ovarian,> 100 µM
same,TGI,PC-3 prostate,> 100 µM
same,TGI,RPMI-8226 leukemia,> 100 µM
same,TGI,SF-268 CNS,9.34 µM
same,TGI,SF-295 CNS,> 100 µM
same,TGI,SF-539 CNS,> 100 µM
same,TGI,SK-MEL-2 melanoma,> 100 µM
same,TGI,SK-MEL-28 melanoma,> 100 µM
same,TGI,SK-MEL-5 melanoma,> 100 µM
same,TGI,SK-OV-3 ovarian,> 100 µM
same,TGI,SN12C renal,> 100 µM
same,TGI,SNB-19 CNS,> 100 µM
same,TGI,SNB-75 CNS,> 100 µM
same,TGI,SR leukemia,> 100 µM
same,TGI,SW-620 colon,> 100 µM
same,TGI,T-47D breast,> 100 µM
same,TGI,TK-10 renal,52.3 µM
same,TGI,U251 CNS,> 100 µM
same,TGI,UACC-257 melanoma,> 100 µM
same,TGI,UACC-62 melanoma,> 100 µM
same,TGI,UO-31 renal,> 100 µM
O=C(/C=C/c1ccccc1)CCc1c(O)c2ccccc2oc1=O,TGI,786-0 renal,> 100 µM
same,TGI,A498 renal,> 100 µM
same,TGI,A549 NSCLC,> 100 µM
same,TGI,ACHN renal,> 100 µM
same,TGI,BT-549 breast,> 100 µM
same,TGI,CAKI-1 renal,> 100 µM
same,TGI,CCRF-CEM leukemia,> 100 µM
same,TGI,COLO 205 colon,> 100 µM
same,TGI,DU-145 prostate,> 100 µM
same,TGI,EKVX NSCLC,> 100 µM
same,TGI,HCC-2998 colon,> 100 µM
same,TGI,HCT-116 colon,> 100 µM
same,TGI,HCT-15 colon,> 100 µM
same,TGI,HOP-92 NSCLC,> 100 µM
same,TGI,HS 578T breast,> 100 µM
same,TGI,HT29 colon,> 100 µM
same,TGI,IGROV1 ovarian,> 100 µM
same,TGI,K-562 leukemia,> 100 µM
same,TGI,KM12 colon,> 100 µM
same,TGI,LOX IMVI melanoma,> 100 µM
same,TGI,M14 melanoma,> 100 µM
same,TGI,MALME-3M melanoma,> 100 µM
same,TGI,MCF7 breast,> 100 µM
same,TGI,MDA-MB-231 breast,> 100 µM
same,TGI,MDA-MB-435,> 100 µM
same,TGI,MDA-N,> 100 µM
same,TGI,MOLT-4 leukemia,> 100 µM
same,TGI,NCI-H226 lung,> 100 µM
same,TGI,NCI-H23 lung,> 100 µM
same,TGI,NCI-H460 lung,> 100 µM
same,TGI,NCI-H522 lung,> 100 µM
same,TGI,NCI/ADR-RES ovarian,> 100 µM
same,TGI,OVCAR-3 ovarian,> 100 µM
same,TGI,OVCAR-4 ovarian,> 100 µM
same,TGI,OVCAR-5 ovarian,> 100 µM
same,TGI,OVCAR-8 ovarian,> 100 µM
same,TGI,PC-3 prostate,> 100 µM
same,TGI,RPMI-8226 leukemia,> 100 µM
same,TGI,SF-268 CNS,> 100 µM
same,TGI,SF-295 CNS,> 100 µM
same,TGI,SF-539 CNS,> 100 µM
same,TGI,SK-MEL-2 melanoma,> 100 µM
same,TGI,SK-MEL-28 melanoma,> 100 µM
same,TGI,SK-MEL-5 melanoma,> 100 µM
same,TGI,SK-OV-3 ovarian,> 100 µM
same,TGI,SN12C renal,> 100 µM
same,TGI,SNB-19 CNS,> 100 µM
same,TGI,SNB-75 CNS,> 100 µM
same,TGI,SW-620 colon,> 100 µM
same,TGI,T-47D breast,> 100 µM
same,TGI,U251 CNS,> 100 µM
same,TGI,UACC-257 melanoma,> 100 µM
same,TGI,UACC-62 melanoma,> 100 µM
same,TGI,UO-31 renal,> 100 µM
